Consider 30 compounds from patent US6972296B2, “Carboxylic acid derivatives that inhibit the binding of integrins to their receptors” (Encysive Pharmaceuticals Inc., priority 1999, dated 2005).

Structures are written as SMILES.

What is called IC50 is the concentration that inhibits the measured activity by half.

T1 sequence (P13612 34-1032): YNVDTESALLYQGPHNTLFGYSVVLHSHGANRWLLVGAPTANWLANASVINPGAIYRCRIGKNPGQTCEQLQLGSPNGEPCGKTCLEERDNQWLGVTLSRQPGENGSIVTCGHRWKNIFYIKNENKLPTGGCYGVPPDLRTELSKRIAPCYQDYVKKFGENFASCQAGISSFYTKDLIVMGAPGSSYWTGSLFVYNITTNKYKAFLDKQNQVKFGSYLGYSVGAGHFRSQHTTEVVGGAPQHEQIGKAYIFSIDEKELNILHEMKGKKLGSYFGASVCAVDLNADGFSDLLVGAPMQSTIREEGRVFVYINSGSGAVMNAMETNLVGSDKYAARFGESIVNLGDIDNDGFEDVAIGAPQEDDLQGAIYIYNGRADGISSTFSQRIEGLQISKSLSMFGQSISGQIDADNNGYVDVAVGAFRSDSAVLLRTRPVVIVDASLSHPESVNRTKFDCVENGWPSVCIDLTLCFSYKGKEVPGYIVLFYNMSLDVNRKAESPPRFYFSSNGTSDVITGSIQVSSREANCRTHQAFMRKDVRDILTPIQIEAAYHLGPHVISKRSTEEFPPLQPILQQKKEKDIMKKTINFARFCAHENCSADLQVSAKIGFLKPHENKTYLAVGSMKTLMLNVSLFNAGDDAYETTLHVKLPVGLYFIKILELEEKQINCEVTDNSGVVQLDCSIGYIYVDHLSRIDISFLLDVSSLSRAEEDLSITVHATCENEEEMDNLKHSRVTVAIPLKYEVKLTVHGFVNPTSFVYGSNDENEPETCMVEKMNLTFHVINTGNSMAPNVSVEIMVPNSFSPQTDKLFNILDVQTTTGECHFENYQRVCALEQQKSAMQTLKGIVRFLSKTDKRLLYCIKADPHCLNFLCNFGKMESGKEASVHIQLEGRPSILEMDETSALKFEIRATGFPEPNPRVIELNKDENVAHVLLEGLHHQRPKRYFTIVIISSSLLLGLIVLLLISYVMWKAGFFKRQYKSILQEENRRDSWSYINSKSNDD
T1 sequence (P05556 21-798): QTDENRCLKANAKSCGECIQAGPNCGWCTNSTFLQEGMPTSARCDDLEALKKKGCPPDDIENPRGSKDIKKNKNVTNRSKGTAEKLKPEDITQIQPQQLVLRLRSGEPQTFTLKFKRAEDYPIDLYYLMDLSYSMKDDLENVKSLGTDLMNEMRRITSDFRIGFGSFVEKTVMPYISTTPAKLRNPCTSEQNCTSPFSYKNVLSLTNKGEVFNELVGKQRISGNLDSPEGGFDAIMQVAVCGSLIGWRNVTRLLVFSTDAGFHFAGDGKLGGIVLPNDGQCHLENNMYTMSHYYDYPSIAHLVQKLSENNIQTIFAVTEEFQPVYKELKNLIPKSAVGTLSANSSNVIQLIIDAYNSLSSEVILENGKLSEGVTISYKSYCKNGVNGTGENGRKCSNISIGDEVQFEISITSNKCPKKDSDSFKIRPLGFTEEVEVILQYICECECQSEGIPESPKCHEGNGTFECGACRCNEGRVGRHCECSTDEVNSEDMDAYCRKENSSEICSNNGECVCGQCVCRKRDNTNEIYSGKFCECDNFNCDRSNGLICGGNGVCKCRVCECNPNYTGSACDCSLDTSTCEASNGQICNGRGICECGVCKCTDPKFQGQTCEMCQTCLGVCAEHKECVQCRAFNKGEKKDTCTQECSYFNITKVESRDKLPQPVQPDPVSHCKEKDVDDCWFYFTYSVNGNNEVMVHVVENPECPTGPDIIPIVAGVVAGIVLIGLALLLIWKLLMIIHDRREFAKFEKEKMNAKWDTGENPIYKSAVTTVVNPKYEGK

This experiment concerns the target T1, α4β1 integrin (Homo sapiens, UniProt P05556+P13612).
T1 construct: endogenous in cells; host or cells: Ramos cells
Nature of the experiment: Adhesion of calcein-labeled Ramos cells to CS1 (fibronectin) peptide conjugated ovalbumin. The class given is cell-based. Particulars: Table 6; Ramos cell adhesion to CS1 conjugated ovalbumin, 30 minutes at 37° C. An outline of the steps: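 Plates bearing CS1 fibronectin peptide coupled to ovalbumin (0.5 μg/ml coat, 3% BSA block) received calcein-labelled Ramos cells plus compound (100 μM stated) for 30 min at 37 °C. Buffer was TBS pH 7.5 with 1 mM Mg2+, Ca2+, Mn2+; bound cells quantified by fluorescence after lysis; […].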
Regarding `O=C(O)CC(NC(=O)Nc1c(O)ccn(Cc2ccccc2Cl)c1=O)c1cc2ccccc2o1` (stereo not drawn), the 50% inhibitory concentration (IC50) was 0.14 µM.
With `Cc1cn(Cc2ccccc2Cl)c(=O)c(NC(=O)NC(CC(=O)O)c2ccc(-c3ccccc3)cc2)c1O` (stereo not drawn) the figure was 0.13 µM; with `COc1ccc2cc(C(CC(=O)O)NC(=O)Nc3c(O)ccn(Cc4ccccc4Cl)c3=O)ccc2c1` (stereo not drawn), 0.015 µM; with `O=C(O)C[C@@H](Cc1cccc2ccccc12)NC(=O)Nc1c(O)ccn(Cc2ccccc2Cl)c1=O`, 2.5 µM.
Take `O=C(O)C[C@@H](Cc1ccccc1Cl)NC(=O)Nc1c(O)ccn(Cc2ccccc2Cl)c1=O`: the 50% inhibitory concentration (IC50) was 0.7 µM.
The value for `CCOc1cccc([C@H](CC(=O)O)NC(=O)Nc2c(O)c(CC)cn(Cc3c(Cl)cccc3OCC)c2=O)c1` was 0.004 µM.
With `COc1cccc(Cl)c1Cn1cc(C)c(O)c(NC(=O)N[C@@H](CC(=O)O)c2ccc(C)c(C)c2)c1=O` the figure was 0.003 µM; with `CCOc1cccc([C@H](CC(=O)O)NC(=O)Nc2c(O)c(C)cn(Cc3c(Cl)cccc3OC)c2=O)c1`, 0.003 µM.
Take `Cc1ccc([C@H](CC(=O)O)NC(=O)Nc2c(O)c3c(n(Cc4c(C)cccc4Cl)c2=O)CCC3)cc1`: the IC50 was 0.02 µM.
The value for `O=C(O)C[C@H](NC(=O)Nc1c(O)ccn(Cc2ccccc2Cl)c1=O)c1cccc(OC(F)(F)C(F)F)c1` was 0.015 µM; that for `COc1ccc2cc([C@H](CC(=O)O)NC(=O)Nc3c(O)ccn(Cc4ccccc4Cl)c3=O)ccc2c1` was 0.015 µM; that for `O=C(O)C[C@H](NC(=O)Nc1c(O)c2c(n(Cc3ccccc3Cl)c1=O)CCC2)c1cccc(OCC(F)(F)F)c1` was 0.03 µM.
Regarding `CCOc1cccc([C@H](CC(=O)O)NC(=O)Nc2c(O)c3c(n(Cc4ccccc4Cl)c2=O)CCC3)c1`, the IC50 is 0.003 µM.
Regarding `COc1cccc([C@H](CC(=O)O)NC(=O)Nc2c(O)c(C)cn(Cc3ccccc3Cl)c2=O)c1`, the IC50 is 0.003 µM.
With `Cc1cn(Cc2ccccc2Cl)c(=O)c(NC(=O)N[C@@H](CC(=O)O)c2cccc(OC(C)C)c2)c1O` the figure was 0.003 µM.
The value for `CCOc1cc(OCC)cc([C@H](CC(=O)O)NC(=O)Nc2c(O)c(C)cn(Cc3ccccc3Cl)c2=O)c1` was 0.003 µM.
Turning to `Cc1cn(Cc2ccccc2Cl)c(=O)c(NC(=O)N[C@@H](CC(=O)O)c2cccc(OC3CCCC3)c2)c1O`, the IC50 was 0.015 µM.
With `Cc1cn(Cc2ccccc2Cl)c(=O)c(NC(=O)N[C@@H](CC(=O)O)c2ccc(OC(F)(F)F)cc2)c1O` the figure was 0.07 µM; with `Cc1ccc([C@H](CC(=O)O)NC(=O)Nc2c(O)c(C)cn(Cc3ccccc3Cl)c2=O)cc1C`, 0.015 µM.
With `Cc1cn(Cc2ccccc2Cl)c(=O)c(NC(=O)N[C@@H](CC(=O)O)c2cccc(OCC(F)(F)F)c2)c1O` the figure was 0.015 µM.
For `Cc1cn(Cc2ccccc2Cl)c(=O)c(NC(=O)N[C@@H](CC(=O)O)c2cccc(C(F)(F)F)c2)c1O`, the IC50 was 0.01 µM.
Take `Cc1cn(Cc2ccccc2Cl)c(=O)c(NC(=O)N[C@@H](CC(=O)O)c2cccc(OC(F)(F)F)c2)c1O`: the half-inhibitory concentration (IC50) was 0.01 µM.
The value for `Cc1ccc([C@H](CC(=O)O)NC(=O)Nc2c(O)c(C3CC3)cn(Cc3ccccc3Cl)c2=O)cc1` was 0.02 µM; that for `Cc1ccc([C@H](CC(=O)O)NC(=O)Nc2c(O)c(C)cn(Cc3c(F)cccc3C(F)(F)F)c2=O)cc1` was 0.1 µM; that for `Cc1ccc([C@H](CC(=O)O)NC(=O)Nc2c(O)c(C)cn(Cc3c(Cl)cccc3Cl)c2=O)cc1` was 0.02 µM.
With `Cc1ccc([C@H](CC(=O)O)NC(=O)Nc2c(O)c(C)cn(Cc3cccc(Cl)c3)c2=O)cc1` the figure was 0.02 µM.
With `Cc1ccc([C@H](CC(=O)O)NC(=O)Nc2c(O)c3c(n(Cc4ccc(Cl)cc4)c2=O)CCC3)cc1` the figure was 0.05 µM; with `CCOc1cc(OCC)cc([C@H](CC(=O)O)NC(=O)Nc2c(O)c(C)nn(Cc3ccccc3Cl)c2=O)c1`, 0.01 µM; with `CSc1cccc(Cn2ccc(O)c(NC(=O)N[C@@H](CC(=O)O)c3ccc(C)cc3)c2=O)c1`, 0.02 µM.
`Cc1ccc(Cn2cc(C)c(O)c(NC(=O)N[C@@H](CC(=O)O)c3ccc(C)cc3)c2=O)cc1`: the 50% inhibitory concentration (IC50) is 0.15 µM.
